Test results: US20190328755A1, “METHODS OF TREATING COMPLEX REGIONAL PAIN SYNDROME (CRPS) OR SYMPTOMS COMPRISING ADMINISTRATION OF […]” (GRUNENTHAL GMBH, priority 2018, published 2019)

Test system: subjects with CRPS
Assay: Open-label single-arm Phase III trial of intravenous neridronic acid, average pain intensity (11-point NRS)
Type: in vivo, human
Details: subjects with CRPS duration >2 years; 400 mg i.v. cumulative, 4 infusions of 240 min; interim look
Method: A multi-site, open-label, single-arm, Phase III safety trial of intravenous neridronic acid at a cumulative dose of 400 mg was conducted in subjects with CRPS to investigate the safety and tolerability of intravenous neridronic acid in subjects with CRPS.
The trial product was supplied in glass vials, each containing 111.2 mg sodium neridronate hemihydrate (equivalent to 100 mg neridronic acid) in a total volume of 8 mL. For each infusion, before use, the trial product was diluted in sterile normal saline (0.9% NaCl, e.g., United States Pharmacopeia (USP) grade saline for injection) to a volume of approximately 500 mL and administered by slow intravenous infusion (240 minutes [maximum 260 minutes]) at day 1, day 4, day 7 and day 10, resulting in a total dose of 400 mg neridronic acid.
In addition, the trial provided supportive data on efficacy and long-term effectiveness of neridronic acid of 400 mg. Average, worst (both with a 24-hour recall period) and current pain intensity was measured at the trial visits using an 11-point numerical rating scale on a tablet computer.
The trial included an enrollment period lasting up to 60 days, a treatment period consisting of 4 infusions of neridronic acid over 10 days, and a follow-up period of approximately 50 weeks. […]

NCCCCCC(O)(P(=O)(O)O)P(=O)(O)O [neridronic acid]
mean (standard deviation) change from baseline to Day 84 in average pain intensity (NRS): −1.22 (2.197)
